Active and inactive are the calls of the source. How the calls were made is not given here.
System: S. cerevisiae GAL1 promoter reporter activation counterscreen
Assay: yeast Gal1p promoter activation – S. cerevisiae, artefact control for yeast lifespan extension project (AID 816);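 further: yeast growth read after 24 h of incubation with compounds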

| SMILES | EC50 |
| --- | --- |
| CCC1C/C(=C\c2cccnc2)C(=O)/C(=C/c2cccnc2)C1 (stereo not given) | > 40 µM (inactive) |
| CN1OC(c2ccccc2)=C(CO)C1c1ccccc1 (stereo not given) | > 40 µM (inactive) |
| COc1ccc(CNC(=O)C2CCN(c3nc(OC)nc(OC)n3)CC2)cc1 | > 40 µM (inactive) |
| CC(=O)c1c(C)[nH]c(C(=O)OC2CCCCC2=O)c1C (stereo not given) | > 40 µM (inactive) |
| CCCCN(CCCC)c1ccc(C(=O)c2ccccc2C(=O)O)c(O)c1 | > 40 µM (inactive) |
| O=C(Nc1scc(-c2cccs2)c1C(=O)O)c1cccs1 | > 40 µM (inactive) |
| CCCCCn1c(=O)c(C(=O)NCc2ccccn2)c(O)c2ccccc21 | > 40 µM (inactive) |
| Cc1ccc2nc(N3C(=O)C(O)=C(C(=O)c4ccco4)C3c3cccs3)sc2c1 (stereo not given) | > 40 µM (inactive) |
| Cc1ccc(S(=O)(=O)Nc2ccccc2/C=N/c2nc3ccccc3n2C(C)C)cc1 | > 40 µM (inactive) |
| CC(=Nc1ccc2c(c1)nc(CO)n2C)C1=C(O)CC(C)(C)CC1=O | > 40 µM (inactive) |
| COc1ccc2c(=O)c3c(=O)n(Cc4ccco4)c(-c4ccc(C)cc4)nc3oc2c1 | > 40 µM (inactive) |
| C=C1C(=O)C=C2CN(C(=O)c3ccccc3)[C@@](Cc3ccc(F)cc3)(C(=O)OC)[C@@H]12 | > 40 µM (inactive) |
| CS(=O)(=O)c1nc(-c2ccccc2)cc(C(F)(F)F)n1 | > 40 µM (inactive) |
| CCOC(=O)C1CCN(C(c2cc3ccc(C)c(C)c3[nH]c2=O)c2nnnn2C2CCCCC2)CC1 (stereo not given) | > 40 µM (inactive) |
| Cc1oc2c(c(=O)c1C)C(=O)CC(c1ccccc1)C2 (stereo not given) | > 40 µM (inactive) |
| O=C(CCN1CCCCCC1)Nc1ccc(F)cc1 | > 40 µM (inactive) |
| CCc1ccc2nc(N3C(=O)C(O)=C(C(=O)c4ccco4)C3c3cccs3)sc2c1 (stereo not given) | > 40 µM (inactive) |
| CCN(CC)Cc1c(O)c(Cl)cc2c(C)c(C)c(=O)oc12 | > 40 µM (inactive) |
| O=C1c2ccccc2NC(c2ccc(Cl)cc2Cl)N1O (stereo not given) | > 40 µM (inactive) |
| O=C(/C=C/c1ccccc1)Nc1ncn[nH]1 | > 40 µM (inactive) |
| CC(C)c1ccc2occ(-c3nn[nH]n3)c(=O)c2c1 | > 40 µM (inactive) |
| O=c1c2ccccc2sn1-c1ccccc1 | > 40 µM (inactive) |
| CCOc1ccc2nc(NCCNC(=O)Nc3ccccc3)c(C#N)cc2c1 | > 40 µM (inactive) |
| O=S(=O)(ON(c1ccccc1)S(=O)(=O)c1ccccc1)c1ccccc1 | > 40 µM (inactive) |
| CCOC(=O)c1c(C)oc2c1c(C(c1cccnc1)N1CCOCC1)c(O)c1ccccc12 (stereo not given) | > 40 µM (inactive) |

| SMILES | EC50 |
| --- | --- |
| CN(C)/C=C(/C(=O)c1ccc(Cl)cc1Cl)S(=O)(=O)c1ccccc1 | > 40 µM (inactive) |
| CCc1oc2ccccc2c1C(=O)CCN1CCCCC1 | > 40 µM (inactive) |
| O=C1CC(c2ccccc2)CC(O)=C1C=NCCN1CCNCC1 (stereo not given) | > 40 µM (inactive) |
| CC(=O)Oc1oc(-c2ccccc2)nc1C=Nc1ccccc1 | > 40 µM (inactive) |
| CCOC(=O)c1ccc2c(c1)n(CCO)c(C)[n+]2CC | > 40 µM (inactive) |
| O=C(NC(=S)NNC(=O)c1ccccc1O)c1ccco1 | > 40 µM (inactive) |
| Cc1cc(C)nc(SCc2cc(=O)c(OC(=O)c3ccco3)co2)n1 | > 40 µM (inactive) |
| CC1CCCCN1C(=S)Nc1ccc2nc3n(c(=O)c2c1)CCCCC3 (stereo not given) | > 40 µM (inactive) |
| CCOC(=O)C(=Cc1ccc(F)cc1)C(=O)OCC | > 40 µM (inactive) |
| Cc1cc(C)c(S(=O)(=O)c2ccccc2)c(OC(=O)c2cc(F)c(F)cc2Cl)n1 | > 40 µM (inactive) |
| C=C(CC)C(=O)c1ccc(OCC(=O)O)c(Cl)c1Cl | > 40 µM (inactive) |
| Cc1ccccc1Oc1cc(-n2ncc(Cl)c(Cl)c2=O)ncn1 | > 40 µM (inactive) |
| COC(=O)/C(=C/c1cn(C)c2ccccc12)[N+](=O)[O-] | > 40 µM (inactive) |
| CNC(=S)NC1CC2CCCC(C1)N2Cc1ccco1 (stereo not given) | > 40 µM (inactive) |
| CCCn1[nH]cc(SC)c(=O)c1=O | > 40 µM (inactive) |
| CC1CCCN(c2nc3ccccc3nc2C(C#N)C(=O)OC2CCCCC2)C1 (stereo not given) | > 40 µM (inactive) |
| CC1CCCCC1NC(=O)/C(C#N)=C/c1ccccc1F (stereo not given) | > 40 µM (inactive) |
| Cc1nonc1NC(=O)CSc1nc(C2CCCCC2)nc2ccccc12 | > 40 µM (inactive) |
| CC(=O)Oc1ccccc1N1C(=O)c2ccc(C(=O)O)cc2C1=O | > 40 µM (inactive) |
| CC1(C)CC(=O)C(C(=O)Cc2ccccc2[N+](=O)[O-])C(=O)C1 | > 40 µM (inactive) |
| O=C1c2ccccc2-c2onc3c(Oc4ccccc4)cc(O)c1c23 | > 40 µM (inactive) |
| CCCc1nc2c(c(=O)c3ccccc3n2C)c(=O)n1C1CCCCCC1 | > 40 µM (inactive) |
| CCOc1ccc(/C=C/C(=O)c2c(O)c3ccccc3oc2=O)cc1 | > 40 µM (inactive) |
| COC(=O)C1=C(N)OC2=C(C(=O)CC(C)(C)C2)C1c1cccs1 (stereo not given) | > 40 µM (inactive) |
| CC(=O)Nc1ccc(C(=O)CSc2nnc(-c3ccc(O)cc3)n2CC2CCCO2)cc1 (stereo not given) | > 40 µM (inactive) |

| SMILES | EC50 |
| --- | --- |
| Cc1ccc(NC(=O)Nc2nc(-c3ccc(C)s3)cs2)cc1 | > 40 µM (inactive) |
| CC(C)Cc1nn2c(=O)cc(O)nc2s1 | > 40 µM (inactive) |
| COCCn1c(SCC(=O)Nc2ccc(C)cc2)nc2c(oc3ccccc32)c1=O | > 40 µM (inactive) |
| CCSc1nnc(NC(=O)C2(C)Cc3ccccc3C(=O)O2)s1 (stereo not given) | > 40 µM (inactive) |
| CC(=C1C(=O)c2ccccc2C1=O)N1CCN(c2ccccn2)CC1 | > 40 µM (inactive) |
| CCOC(=O)c1nnn(-c2nonc2N)c1CN1CCc2ccccc2C1 | > 40 µM (inactive) |
| O=c1c2ccccc2nc(-c2ccc(Cl)c(Cl)c2)n1O | > 40 µM (inactive) |
| CN1CCN(C(=S)Nc2cc([N+](=O)[O-])ccc2Cl)CC1 | > 40 µM (inactive) |
| COc1cc(Br)cc(-c2nc3c(c(=O)[nH]c(=O)n3Cc3ccccc3)n2C)c1O | > 40 µM (inactive) |
| CCCN1C(=O)/C(=C/c2ccncc2)SC1=S | > 40 µM (inactive) |
| O=C1c2ccccc2C(=O)N1Cc1nc2ccccc2c(=O)n1-c1ccc(Br)cn1 | > 40 µM (inactive) |
| CCCCn1c(=O)c(C(=O)Nc2cnccn2)c(O)c2ccccc21 | > 40 µM (inactive) |
| O=C(COc1ccc([N+](=O)[O-])cc1)N(Cc1ccccc1)Cc1ccccc1 | > 40 µM (inactive) |
| Cc1c(NC(=O)C(=O)/C=C(\O)c2ccc(Cl)cc2)c(=O)n(-c2ccccc2)n1C | > 40 µM (inactive) |
| CC(C)C(c1nnnn1Cc1ccccc1)N1CCN(Cc2ccc3c(c2)OCO3)CC1 (stereo not given) | > 40 µM (inactive) |
| Nc1cccc2c1C(=O)N(C(=O)c1ccc(Cl)c(S(=O)(=O)N3CCCCCC3)c1)C2=O | > 40 µM (inactive) |
| O=C(O)Cc1ccc(N=Cc2c(O)ccc3ccccc23)cc1 | > 40 µM (inactive) |
| O=c1c2ccccc2nc(-c2cccc(Cl)c2)n1O | > 40 µM (inactive) |
| Cc1cc(C=C2C(=O)N(C)C(=S)N(C)C2=O)c(C)n1-c1cccnc1 | > 40 µM (inactive) |
| CCCCCCN1CC(C(=O)OCC)C(=O)C1=O (stereo not given) | > 40 µM (inactive) |
| COc1ccc(OC)c(NC(=S)N2CCN(C/C=C/c3ccccc3)CC2)c1 | > 40 µM (inactive) |
| Cc1ccc(-c2nc3ccc(Cl)cc3n2OC(=O)N(C)C)cc1 | > 40 µM (inactive) |
| O=C(N/N=C/c1ccccc1)c1c(O)c2ccccc2[nH]c1=O | > 40 µM (inactive) |
| CC(C)(C)C(=O)/C(=C/c1cccc([N+](=O)[O-])c1)n1cncn1 | > 40 µM (inactive) |
| CC1=NN(c2ccc(C(F)(F)F)cn2)C(=O)C1 | > 40 µM (inactive) |

| SMILES | EC50 |
| --- | --- |
| O=C1c2ccccc2C(=O)N1OCc1ccccc1 | > 40 µM (inactive) |
| CN1C(=O)/C(=C/c2cccn2-c2ccc3ccccc3c2)C(=O)NC1=S | > 40 µM (inactive) |
| CC(C)n1c(=O)c2c(O)cc(=O)oc2c2ccccc21 | > 40 µM (inactive) |
| C=CCn1c(-c2ccc(OC)cc2)csc1=Nc1c(C)n(C)n(-c2ccccc2)c1=O | > 40 µM (inactive) |
| CN1C(=O)C(Cl)(Cl)C(=O)c2ccccc21 | > 40 µM (inactive) |
| COc1ccc2c3c(cccc13)C(=O)N(O)C2=O | > 40 µM (inactive) |
| O=C(CS(=O)c1ccc(C(F)(F)F)cc1[N+](=O)[O-])Oc1ccccc1 (stereo not given) | > 40 µM (inactive) |
| CC(=NCCc1c(C)[nH]c2ccc(C)cc12)C1=C(O)CC(c2ccccc2)CC1=O (stereo not given) | > 40 µM (inactive) |
| COCCN(CCOC)S(=O)(=O)c1ccc(C(=O)Nc2sc3c(c2C(N)=O)CCCCC3)cc1 | > 40 µM (inactive) |
| O=C(NC(=S)NNS(=O)(=O)c1ccccc1)c1ccc([N+](=O)[O-])cc1 | > 40 µM (inactive) |
| COc1ccc(/C=C(\C#N)C(=O)N2CCOCC2)cc1Br | > 40 µM (inactive) |
| O=c1c(-c2ccc(Cl)cc2)[n+]([O-])c2ccccc2n1OCc1ccccn1 | > 40 µM (inactive) |
| CCC(=NCCc1c(C)[nH]c2ccc(C)cc12)C1=C(O)CC(c2ccccc2)CC1=O (stereo not given) | > 40 µM (inactive) |
| CC(C)Cn1c(=O)c(C(=O)Nc2cnccn2)c(O)c2ccccc21 | > 40 µM (inactive) |
| CCc1ccc(CC2S/C(=C(\C#N)C(C)=O)NC2=O)cc1 (stereo not given) | > 40 µM (inactive) |
| O=C(c1c[nH]c(C(=O)C(Cl)(Cl)Cl)c1)c1ccccc1Cl | > 40 µM (inactive) |
| CCCCn1c(/N=C/c2ccccc2NS(=O)(=O)c2ccc(C)cc2)nc2ccccc21 | > 40 µM (inactive) |
| CCN1CCCC1CNC(=O)COc1cc(=O)n(C)c2ccccc12 (stereo not given) | > 40 µM (inactive) |
| CCOc1cc(/C=C\[N+](=O)[O-])ccc1OCC(=O)Nc1ccccc1C | > 40 µM (inactive) |
| Cc1cc(C)cc(CC2CC(=O)N(c3ccc(Cl)cn3)C2=O)c1 (stereo not given) | > 40 µM (inactive) |
| O=[N+]([O-])c1cc2oc3c(c2c(C=NCc2ccccc2)c1O)CCCC3 | > 40 µM (inactive) |
| Oc1ccc2ccccc2c1C=Nc1ccccc1-c1nc2ccccc2[nH]1 | > 40 µM (inactive) |
| O=C(NCc1ccco1)c1cc(C(=O)C2CCCCC2)c[nH]1 | > 40 µM (inactive) |
| COC(=O)C1=C(C(=O)OC)C(c2ccccc2O)c2sc(=O)[nH]c2S1 (stereo not given) | > 40 µM (inactive) |
| N#C/C(=C\c1ccccc1)C(=O)N(c1ccccn1)C1CCCCC1 | > 40 µM (inactive) |
